For four molecules, IC50 results are on record in publication PMC4529246 (PLoS ONE, 2015).

Holding throughout (experiment): cell-based
In experiment [1] the target is T1, system xc- (IMR90) (Homo sapiens, UniProt Q9UPY5).
T1 construct: gene SLC7A11; native endogenous transporter in intact IMR-90 fibroblasts
T1 sequence (Q9UPY5 1-501): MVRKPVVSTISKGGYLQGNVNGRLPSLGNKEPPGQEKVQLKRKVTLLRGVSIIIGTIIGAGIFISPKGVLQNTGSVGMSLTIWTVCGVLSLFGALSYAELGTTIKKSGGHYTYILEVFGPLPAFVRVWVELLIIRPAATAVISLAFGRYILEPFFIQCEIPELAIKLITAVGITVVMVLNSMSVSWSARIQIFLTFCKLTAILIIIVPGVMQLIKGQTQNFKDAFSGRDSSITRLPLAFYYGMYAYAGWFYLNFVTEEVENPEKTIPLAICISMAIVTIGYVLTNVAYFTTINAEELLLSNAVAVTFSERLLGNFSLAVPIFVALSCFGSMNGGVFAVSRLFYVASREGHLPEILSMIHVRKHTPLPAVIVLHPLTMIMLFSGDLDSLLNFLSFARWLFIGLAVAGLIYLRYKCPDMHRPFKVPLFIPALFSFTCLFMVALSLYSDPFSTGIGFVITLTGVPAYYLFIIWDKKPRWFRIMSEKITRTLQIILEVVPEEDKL
T1 sequence (P08195 1-529 partner): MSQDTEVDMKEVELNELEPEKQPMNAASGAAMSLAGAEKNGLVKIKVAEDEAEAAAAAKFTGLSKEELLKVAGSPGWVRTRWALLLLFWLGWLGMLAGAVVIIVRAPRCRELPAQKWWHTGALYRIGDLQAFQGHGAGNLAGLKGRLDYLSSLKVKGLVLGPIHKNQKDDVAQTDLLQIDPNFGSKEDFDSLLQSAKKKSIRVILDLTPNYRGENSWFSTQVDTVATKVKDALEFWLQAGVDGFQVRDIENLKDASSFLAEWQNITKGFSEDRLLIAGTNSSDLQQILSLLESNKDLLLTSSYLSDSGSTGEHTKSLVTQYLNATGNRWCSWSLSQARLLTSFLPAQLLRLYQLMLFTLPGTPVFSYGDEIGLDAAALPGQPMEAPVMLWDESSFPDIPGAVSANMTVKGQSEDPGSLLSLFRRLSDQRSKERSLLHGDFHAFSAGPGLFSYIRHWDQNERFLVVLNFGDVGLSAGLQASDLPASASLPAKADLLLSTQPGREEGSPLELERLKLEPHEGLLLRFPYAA
More on the design: species or system IMR-90; cystine-induced glutamate release inhibition, 30 min, PBS with Na+. Particulars: PBS (+Na+), 30 min; read-out: Glutamate Release IMR90. How it is done: Early characterization of the cystine-induced glutamate release assay was carried out in the 96-well format and later adapted to the 384-well format. Briefly, CCF-STTG-1 cells were seeded at 0.04 x 10^6 cells per 96-well and grown to confluence. […] Cells were maintained for 2h at 37°C in an incubator with 5% CO2. At the end of the incubation period, cystine-induced glutamate release was measured directly. The assay was further characterized for the dependence of cystine-induced glutamate release on protein content (mg/ml) and the time of incubation. […] Cells were maintained at 37°C in an incubator with 5% CO2 and the glutamate released over a 2h period measured. Identical protocols were followed for IC50 determinations using UB or PBS with CCF-STTG-1, neuroglioma (H4) or fibroblast (IMR-90) cells. U-87 MG cells were seeded at 0.06 x 10^6 cells per 96-well (in 0.3 ml growth media) and tested on Day2. When running the assay in the 384-well format, CCF-STTG-1 cells were seeded at 0.01 x 10^6 cells per well (in 0.025 ml growth media) and grown to confluence. […] Cells were maintained for 3h at 37°C in an incubator with 5% CO2. At the end of the incubation period, cystine-induced glutamate release was measured directly. The rates of [^14C]-cystine influx and cystine-induced glutamate efflux were closely examined using CCF-STTG-1 (grade IV astrocytoma) cells in order to understand the reasons for the lower IC50 values and longer time-dependence in the cystine-induced glutamate release assay. […] The experiments were repeated also using IMR-90 fibroblast cells derived from normal embryonic lung and a second cancer line, the H4 neuroglioma cells. […] (DOCX) Click here for additional data file.

The target of experiment [2] is T2, system xc- (H4) (Homo sapiens, UniProt Q9UPY5).
T2 construct: gene SLC7A11; native endogenous transporter in intact H4 neuroglioma cells
T2 sequence (Q9UPY5 1-501): T1 sequence (Q9UPY5 1-501)
T2 sequence (P08195 1-529 partner): T1 sequence (P08195 1-529 partner)
The arrangement: cystine-induced glutamate release inhibition, 30 min, PBS with Na+. Particulars: PBS (+Na+), 30 min; read-out: Glutamate Release H4. On the procedure:
Early characterization of the cystine-induced glutamate release assay was carried out in the 96-well format and later adapted to the 384-well format. Briefly, CCF-STTG-1 cells were seeded at 0.04 x 10^6 cells per 96-well and grown to confluence. […] Cells were maintained for 2h at 37°C in an incubator with 5% CO2. At the end of the incubation period, cystine-induced glutamate release was measured directly. The assay was further characterized for the dependence of cystine-induced glutamate release on protein content (mg/ml) and the time of incubation. […] Cells were maintained at 37°C in an incubator with 5% CO2 and the glutamate released over a 2h period measured. Identical protocols were followed for IC50 determinations using UB or PBS with CCF-STTG-1, neuroglioma (H4) or fibroblast (IMR-90) cells. U-87 MG cells were seeded at 0.06 x 10^6 cells per 96-well (in 0.3 ml growth media) and tested on Day2. When running the assay in the 384-well format, CCF-STTG-1 cells were seeded at 0.01 x 10^6 cells per well (in 0.025 ml growth media) and grown to confluence. […] Cells were maintained for 3h at 37°C in an incubator with 5% CO2. At the end of the incubation period, cystine-induced glutamate release was measured directly. […]

The target of experiment [3] is T2, system xc- (H4). The arrangement: [14C]-cystine uptake inhibition, 2 min, PBS with Na+, scintillation counting. Particulars: PBS (+Na+), 2 min. How it is done:
Early characterization work was carried out in a 12-well format and the assay later adapted and characterized in the 96-well format. Briefly, CCF-STTG-1 cells were seeded at 0.04 x 10^6 cells per well in 0.2 ml growth media and grown to confluence. […] After 15 min, uptake was terminated by three washes (115 μl/well) with ice-cold UB. Cells were then lysed with 0.1 N NaOH (100 μl/well) and the radioactivity in the cells measured using scintillant-coated 96-well plates (PerkinElmer: 6005630) and normalized to protein contents. The assay was further characterized for the dependence of ^14C-cystine uptake on protein content (mg/ml) and the time and temperature of incubation. To determine IC50 values, CCF-STTG-1 cells were similarly seeded and grown to confluence. On day 3, transport was initiated upon the addition of pre-warmed (37°C) [^14C]-cystine 80 μM (5.631 μCi/μmol) in Earle’s Balanced Salt Solution (EBSS, Sigma: E3024, contents in mM: NaCl 116.4, NaHCO3 26.2, NaH2PO4 1.02, KCl 5.36, MgSO4 0.81, CaCl2 1.8 and Glucose 5.56, pH 7.4) in the presence and absence of inhibitors. […]

Experiment [4] addresses T1, system xc- (IMR90). The arrangement: species or system IMR-90; [14C]-cystine uptake inhibition, 2 min, PBS with Na+, scintillation counting. Particulars: PBS (+Na+), 2 min. How it is done: Early characterization work was carried out in a 12-well format and the assay later adapted and characterized in the 96-well format. Briefly, CCF-STTG-1 cells were seeded at 0.04 x 10^6 cells per well in 0.2 ml growth media and grown to confluence. […] Cells were then lysed with 0.1 N NaOH (100 μl/well) and the radioactivity in the cells measured using scintillant-coated 96-well plates (PerkinElmer: 6005630) and normalized to protein contents. The assay was further characterized for the dependence of ^14C-cystine uptake on protein content (mg/ml) and the time and temperature of incubation. To determine IC50 values, CCF-STTG-1 cells were similarly seeded and grown to confluence. On day 3, transport was initiated upon the addition of pre-warmed (37°C) [^14C]-cystine 80 μM ([…], Sigma: E3024, contents in mM: NaCl 116.4, NaHCO3 26.2, NaH2PO4 1.02, KCl 5.36, MgSO4 0.81, CaCl2 1.8 and Glucose 5.56, pH 7.4) in the presence and absence of inhibitors. […] Identical protocols were followed for IC50 determinations using UB or phosphate buffered saline (PBS; contents in mM: S1 Table) with […] The rates of [^14C]-cystine influx and cystine-induced glutamate efflux were closely examined using CCF-STTG-1 (grade IV astrocytoma) cells in order to understand the reasons for the lower IC50 values and longer time-dependence in the cystine-induced glutamate release assay. […]

Where two headings read alike, the source gives them in different places.

In the case of `N[C@@H](C(=O)O)c1ccc(C(=O)O)cc1` [(R)-4CPG], the IC50 at system xc- (IMR90) [1] and on system xc- (H4) [2] was above 100 µM each time.

On to `N[C@H](C(=O)O)c1ccc(C(=O)O)cc1` [(S)-4CPG], for which the IC50 at system xc- (IMR90) [1] amounted to 2 ± 0.4 µM; on system xc- (H4) [3] it was 20 ± 0.4 µM.

In the case of `O=C(O)c1cc(/N=N/c2ccc(S(=O)(=O)Nc3ccccn3)cc2)ccc1O` [SAS], the IC50 on system xc- (IMR90) [1] stood at 3 ± 0.2 µM.

As for `N[C@@H](CCC(=O)O)C(=O)O` [glutamate], the IC50 is 200 ± 3 µM against system xc- (IMR90) [4] and 200 ± 20 µM at system xc- (H4) [3].
